One assay has as its system A549. Put plainly: Antiproliferative activity against human A549 cells harbouring wild type EGFR incubated for 72 hrs by SRB assay. Type of assay: functional, cell-based. The following applies: A549, 72 h. A general note: The SRB assay estimates cell density from bound dye.
For the next assay, the system named is MDA-MB-231. Put plainly: Antiproliferative activity against human MDA-MB-231 cells incubated for 72 hrs by SRB assay. Type of assay: functional, cell-based. The following applies: MDA-MB-231, 72 h.
A short description of assay [1]: Antiproliferative activity against human KB-VIN10 cells incubated for 72 hrs by SRB assay. Type of assay: functional, cell-based. The following applies: KB-VIN10, 72 h.
In the next assay the test system is MCF7. Put plainly: Antiproliferative activity against human MCF7 cells incubated for 72 hrs by SRB assay. Type of assay: functional, cell-based. The note with it: MCF7, 72 h.
A further assay has as its system KB. Put plainly: Antiproliferative activity against human KB cells incubated for 72 hrs by SRB assay. Type of assay: functional, cell-based.
For assay [2], the target named is Epidermal growth factor receptor (Homo sapiens, UniProt P00533, L858R/T790M). The assay is described as follows: biochemical. Type of assay: cell-based, Sf9.
The target in assay [3] is Epidermal growth factor receptor (Homo sapiens, UniProt P00533, C797S/L858R/T790M). The assay is described as follows: biochemical. Type of assay: cell-based, Sf9.
Assay [4] concerns the target Epidermal growth factor receptor (Homo sapiens, UniProt P00533). The assay is described as follows: biochemical. Type of assay: cell-based, Sf9.
Description: Inhibition of C-terminal His-tagged/ N-terminal GST-tagged recombinant human EGFR (668 to 1210 residues) expressed in a Baculovirus infected Sf9 cell expression system using poly-EY as substrate incubated for 30 mins by ADP-Glo kinase assay
For assay [5], the system named is NCI-H1975. Put plainly: Antiproliferative activity against human NCI-H1975 cells incubated for 72 hrs by MTS assay. The following applies: NCI-H1975, 72 h. Type of assay: functional, cell-based. A general note: Formazan colour is commonly taken as a measure of viable cells.
Assay [6] relates to NCI-H1975. Put plainly: cells. Type of assay: functional, cell-based. The note with it: Homo sapiens, NCI-H1975, 72 h.
The subject of assay [7] is NCI-H1975. Put plainly: Antiproliferative activity against human NCI-H1975 cells assessed as induction of NO production at 100 uM incubated for 150 mins by Griess reagent based assay. Type of assay: functional, cell-based. (In general: Griess reagent forms a coloured azo dye with nitrite.)

Each structure is given as a SMILES string. Active and inactive are the calls of the source. No cut-off for these calls is given here.

One may read the IC50 as the point on the concentration scale where inhibition reaches its midpoint.

Sequence of Epidermal growth factor receptor (Homo sapiens, UniProt P00533) (P00533 whole entry): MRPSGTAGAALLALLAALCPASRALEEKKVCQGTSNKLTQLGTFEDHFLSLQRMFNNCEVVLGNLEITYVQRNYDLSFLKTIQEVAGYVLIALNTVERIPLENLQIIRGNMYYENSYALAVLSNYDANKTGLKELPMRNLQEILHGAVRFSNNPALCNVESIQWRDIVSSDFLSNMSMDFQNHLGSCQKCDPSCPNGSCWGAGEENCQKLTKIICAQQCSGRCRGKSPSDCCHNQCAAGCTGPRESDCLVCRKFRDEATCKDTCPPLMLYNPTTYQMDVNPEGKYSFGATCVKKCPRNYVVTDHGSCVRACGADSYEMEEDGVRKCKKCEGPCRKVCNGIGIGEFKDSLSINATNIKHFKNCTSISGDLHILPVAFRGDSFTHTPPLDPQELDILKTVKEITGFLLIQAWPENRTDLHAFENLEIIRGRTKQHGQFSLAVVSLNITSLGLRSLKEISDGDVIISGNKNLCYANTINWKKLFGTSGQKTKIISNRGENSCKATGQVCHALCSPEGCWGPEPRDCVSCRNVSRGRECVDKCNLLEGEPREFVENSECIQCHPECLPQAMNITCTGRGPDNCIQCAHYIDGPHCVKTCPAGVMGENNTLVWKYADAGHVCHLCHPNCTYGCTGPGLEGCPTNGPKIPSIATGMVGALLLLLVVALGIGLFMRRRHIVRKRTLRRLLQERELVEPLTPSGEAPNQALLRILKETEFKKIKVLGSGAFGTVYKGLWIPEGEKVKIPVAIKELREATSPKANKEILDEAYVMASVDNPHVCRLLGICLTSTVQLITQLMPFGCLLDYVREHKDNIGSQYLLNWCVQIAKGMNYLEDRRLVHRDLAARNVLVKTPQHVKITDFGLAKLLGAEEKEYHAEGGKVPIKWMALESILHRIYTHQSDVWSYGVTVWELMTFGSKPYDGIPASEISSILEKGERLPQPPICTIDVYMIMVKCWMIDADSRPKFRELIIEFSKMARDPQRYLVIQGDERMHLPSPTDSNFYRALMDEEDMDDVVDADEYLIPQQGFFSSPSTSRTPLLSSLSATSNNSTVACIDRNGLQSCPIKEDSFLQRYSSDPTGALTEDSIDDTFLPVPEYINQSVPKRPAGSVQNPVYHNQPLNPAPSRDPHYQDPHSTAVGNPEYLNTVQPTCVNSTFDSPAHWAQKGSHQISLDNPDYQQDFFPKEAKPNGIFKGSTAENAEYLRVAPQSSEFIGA
Sequence of Epidermal growth factor receptor (Homo sapiens, UniProt P00533, L858R/T790M) (P00533 25-1210 T790M/L858R limits assumed): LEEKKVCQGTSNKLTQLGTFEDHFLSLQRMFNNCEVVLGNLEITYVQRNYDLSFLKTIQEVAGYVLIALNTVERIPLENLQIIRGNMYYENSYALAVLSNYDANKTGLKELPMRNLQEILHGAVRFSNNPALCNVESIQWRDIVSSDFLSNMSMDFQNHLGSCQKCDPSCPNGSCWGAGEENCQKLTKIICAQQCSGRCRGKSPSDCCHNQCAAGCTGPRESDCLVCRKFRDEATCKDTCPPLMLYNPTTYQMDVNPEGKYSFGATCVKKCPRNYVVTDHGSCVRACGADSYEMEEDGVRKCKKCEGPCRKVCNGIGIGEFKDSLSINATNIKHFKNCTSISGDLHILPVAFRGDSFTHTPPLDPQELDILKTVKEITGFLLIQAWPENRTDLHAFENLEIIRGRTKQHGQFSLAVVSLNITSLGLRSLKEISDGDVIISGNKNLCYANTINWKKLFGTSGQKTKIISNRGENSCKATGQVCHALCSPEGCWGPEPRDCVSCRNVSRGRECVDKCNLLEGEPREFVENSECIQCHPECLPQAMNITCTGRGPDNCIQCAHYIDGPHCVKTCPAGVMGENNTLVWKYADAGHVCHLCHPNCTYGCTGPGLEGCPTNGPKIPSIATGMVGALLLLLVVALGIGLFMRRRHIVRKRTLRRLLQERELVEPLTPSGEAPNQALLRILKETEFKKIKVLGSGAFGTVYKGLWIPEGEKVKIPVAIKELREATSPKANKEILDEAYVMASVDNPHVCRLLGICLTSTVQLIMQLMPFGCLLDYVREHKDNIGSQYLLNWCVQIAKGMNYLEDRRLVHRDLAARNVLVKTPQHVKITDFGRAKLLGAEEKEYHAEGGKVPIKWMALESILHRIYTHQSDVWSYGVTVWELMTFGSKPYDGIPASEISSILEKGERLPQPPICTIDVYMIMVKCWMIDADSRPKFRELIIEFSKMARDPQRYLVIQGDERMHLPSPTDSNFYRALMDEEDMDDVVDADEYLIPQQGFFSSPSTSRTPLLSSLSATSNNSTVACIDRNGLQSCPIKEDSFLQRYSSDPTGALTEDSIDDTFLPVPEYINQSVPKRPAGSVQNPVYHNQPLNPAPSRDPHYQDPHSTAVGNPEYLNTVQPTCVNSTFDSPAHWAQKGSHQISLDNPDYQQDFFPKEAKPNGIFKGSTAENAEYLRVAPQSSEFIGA
Sequence of Epidermal growth factor receptor (Homo sapiens, UniProt P00533, C797S/L858R/T790M) (P00533 25-1210 T790M/C797S/L858R limits assumed): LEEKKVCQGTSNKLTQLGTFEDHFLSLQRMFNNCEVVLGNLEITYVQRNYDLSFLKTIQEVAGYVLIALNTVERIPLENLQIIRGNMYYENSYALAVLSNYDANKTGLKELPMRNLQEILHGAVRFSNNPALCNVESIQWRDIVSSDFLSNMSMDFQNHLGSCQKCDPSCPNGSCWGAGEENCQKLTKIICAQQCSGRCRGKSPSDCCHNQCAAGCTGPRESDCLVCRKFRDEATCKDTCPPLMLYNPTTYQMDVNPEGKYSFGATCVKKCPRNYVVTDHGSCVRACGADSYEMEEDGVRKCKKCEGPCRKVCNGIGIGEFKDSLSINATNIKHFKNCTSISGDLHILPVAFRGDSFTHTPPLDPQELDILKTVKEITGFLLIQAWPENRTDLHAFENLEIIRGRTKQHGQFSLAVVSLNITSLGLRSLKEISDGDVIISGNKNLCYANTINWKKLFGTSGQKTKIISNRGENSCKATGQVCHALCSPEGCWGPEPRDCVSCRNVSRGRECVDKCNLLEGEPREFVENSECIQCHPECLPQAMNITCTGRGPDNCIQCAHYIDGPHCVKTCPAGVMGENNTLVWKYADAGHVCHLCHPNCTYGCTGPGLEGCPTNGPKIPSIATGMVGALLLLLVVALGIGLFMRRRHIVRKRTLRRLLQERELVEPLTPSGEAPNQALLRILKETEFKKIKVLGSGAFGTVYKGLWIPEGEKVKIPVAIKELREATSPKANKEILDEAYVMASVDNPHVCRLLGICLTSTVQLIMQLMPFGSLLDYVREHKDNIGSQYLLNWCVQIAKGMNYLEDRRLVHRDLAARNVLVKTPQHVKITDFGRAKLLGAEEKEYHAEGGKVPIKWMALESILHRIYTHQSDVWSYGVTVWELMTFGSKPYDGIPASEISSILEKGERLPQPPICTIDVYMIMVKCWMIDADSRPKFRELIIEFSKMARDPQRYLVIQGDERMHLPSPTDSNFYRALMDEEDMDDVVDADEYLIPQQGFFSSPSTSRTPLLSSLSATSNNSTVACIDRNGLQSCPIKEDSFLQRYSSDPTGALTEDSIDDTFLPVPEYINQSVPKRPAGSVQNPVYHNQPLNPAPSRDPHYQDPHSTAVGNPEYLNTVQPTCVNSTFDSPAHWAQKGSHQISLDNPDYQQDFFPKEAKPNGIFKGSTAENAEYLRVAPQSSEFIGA

For `CC1(C)CC[C@]2(C(=O)OCCCCCCO[N+](=O)[O-])CC[C@]3(C)C(=CC[C@@H]4[C@@]5(C)CC[C@H](O)[C@@](C)(CO)[C@@H]5CC[C@]43C)[C@@H]2C1`, the IC50 in the assay on A549 is over 10 µM; with MDA-MB-231, over 10 µM; in assay [1] it was over 40 µM; with MCF7, over 10 µM; in the assay with KB, over 10 µM.
For the molecule `CC1(C)CC[C@]2(C(=O)OCCCCO[N+](=O)[O-])CC[C@]3(C)C(=CC[C@@H]4[C@@]5(C)CC[C@H](OCc6ccccc6)C(C)(C)[C@@H]5CC[C@]43C)[C@@H]2C1`, the IC50 in assay [2] is over 20 µM; in the assay with A549 it was over 10 µM; in [3], over 20 µM; in the assay on MDA-MB-231, over 10 µM; in assay [4], over 20 µM; in [1], over 10 µM. Further, the IC50 with MCF7, in the assay with NCI-H1975 [5], in the assay with KB and in the assay on NCI-H1975 [6] was over 10 µM throughout.
Take `CC1(C)CC[C@]2(C(=O)OCCCCO[N+](=O)[O-])CC[C@]3(C)C(=CC[C@@H]4[C@@]5(C)CC[C@H](O)C(C)(C)[C@@H]5CC[C@]43C)[C@@H]2C1`: the IC50 with A549 was 9.2 µM; with MDA-MB-231 it was over 10 µM; in assay [1], over 10 µM; in the assay with MCF7, over 10 µM; in the assay with KB, over 10 µM.
Consider `C=CC(=O)Nc1cc(Nc2nccc(-c3cn(C)c4ccccc34)n2)c(OC)cc1N(C)CCN(C)C` [OSIMERTINIB], for which the half-inhibitory concentration (IC50) in the assay with NCI-H1975 [5] was determined as […]; in the assay with NCI-H1975 [6], […].
`CC1(C)CC[C@]2(C(=O)OCCCCO[N+](=O)[O-])CC[C@]3(C)C(=CC[C@@H]4[C@@]5(C)CC[C@H](OC(=O)/C=C/c6ccc7c(c6)OCO7)C(C)(C)[C@@H]5CC[C@]43C)[C@@H]2C1`: the IC50 is over 20 µM in [2]; over 20 µM in [3]; over 20 µM in [4]; over 10 µM with NCI-H1975 [5]; over 10 µM with NCI-H1975 [6].
`COc1cc(N2CCC(N3CCN(C)CC3)CC2)ccc1Nc1ncc(Cl)c(Nc2ccccc2P(C)(C)=O)n1` [BRIGATINIB]: the 50% inhibitory concentration (IC50) in the assay with NCI-H1975 [5] is 0.62 µM; with NCI-H1975 [6], 0.64 µM.
Consider `CC1(C)CC[C@]2(C(=O)OCCCCO[N+](=O)[O-])CC[C@]3(C)C(=CC[C@@H]4[C@@]5(C)CC[C@H](OC(=O)c6ccc([N+](=O)[O-])cc6)C(C)(C)[C@@H]5CC[C@]43C)[C@@H]2C1`, for which the IC50 in assay [2] is over 20 µM; in assay [3], over 20 µM; in [4] it was over 20 µM; in the assay with NCI-H1975 [5] it was over 10 µM; in the assay on NCI-H1975 [6], over 10 µM.
Regarding `CC1(C)CC[C@]2(C(=O)OCCCCCCO[N+](=O)[O-])CC[C@]3(C)C(=CC[C@@H]4[C@@]5(C)CC[C@H](O)C(C)(C)[C@@H]5CC[C@]43C)[C@@H]2C1`, the IC50 (with A549; with MDA-MB-231; in [1]; in the assay with MCF7; in the assay on KB) was over 10 µM each time.
As to `C=CC(=O)O[C@H]1CC[C@]2(C)[C@H]3CC=C4[C@@H]5CC(C)(C)CC[C@]5(C(=O)OCCCCO[N+](=O)[O-])CC[C@@]4(C)[C@]3(C)CC[C@H]2C1(C)C`, the IC50 was over 20 µM in assay [2]; over 10 µM with A549; over 20 µM in [3]; over 10 µM in the assay with MDA-MB-231; over 20 µM in assay [4]; over 10 µM in [1]. The IC50 with MCF7, in the assay with NCI-H1975 [5], in the assay with KB and with NCI-H1975 [6] was over 10 µM throughout.
As for `CC(=O)O[C@H]1CC[C@]2(C)[C@H]3CC=C4[C@@H]5CC(C)(C)CC[C@]5(C(=O)OCCO[N+](=O)[O-])CC[C@@]4(C)[C@]3(C)CC[C@H]2C1(C)C`, the concentration for half-maximal inhibition (IC50) is 6.3 µM in the assay on A549; 7.9 µM in the assay with MDA-MB-231; over 10 µM in [1]; 6.8 µM in the assay with MCF7; 4.9 µM in the assay on KB. In addition, the result in the assay with NCI-H1975 [7] was Active.
Turning to `CC1(C)CC[C@]2(C(=O)OCCCCO[N+](=O)[O-])CC[C@]3(C)C(=CC[C@@H]4[C@@]5(C)CC[C@H](OC(=O)c6ccccc6)C(C)(C)[C@@H]5CC[C@]43C)[C@@H]2C1`, the IC50 in assay [2] was over 20 µM; in the assay with A549 it was over 10 µM; in [3] it was over 20 µM; with MDA-MB-231, over 10 µM; in assay [4] it was over 20 µM; in [1], over 10 µM. Moreover, the IC50 with MCF7, with NCI-H1975 [5], in the assay on KB and in the assay with NCI-H1975 [6] was over 10 µM in each case.
`CC1(C)CC[C@]2(C(=O)OCCO[N+](=O)[O-])CC[C@]3(C)C(=CC[C@@H]4[C@@]5(C)CC[C@H](O)[C@@](C)(CO)[C@@H]5CC[C@]43C)[C@@H]2C1`: the IC50 was over 10 µM in the assay with A549; 9.2 µM in the assay on MDA-MB-231; over 10 µM in assay [1]; over 10 µM with MCF7; 9.5 µM in the assay with KB. For the same molecule, the result with NCI-H1975 [7] was Active.
As to `CC1(C)CC[C@]2(C(=O)O)CC[C@]3(C)C(=CC[C@@H]4[C@@]5(C)CC[C@H](O)[C@@](C)(CO)[C@@H]5CC[C@]43C)[C@@H]2C1` [HEDERAGENIN], the IC50 in assay [2] is over 20 µM; in the assay with A549, over 10 µM; in assay [3], over 20 µM; with MDA-MB-231, over 10 µM; in assay [4], over 20 µM; in assay [1], over 10 µM. Besides, the half-inhibitory concentration (IC50) in the assay with MCF7, with NCI-H1975 [5], in the assay on KB and in the assay on NCI-H1975 [6] was over 10 µM in each case.
Turning to `CC(=O)O[C@H]1C(=O)[C@@]2(C)[C@H]([C@H](OC(=O)c3ccccc3)[C@]3(O)C[C@H](OC(=O)[C@H](O)[C@@H](NC(=O)c4ccccc4)c4ccccc4)C(C)=C1C3(C)C)[C@]1(OC(C)=O)CO[C@@H]1C[C@@H]2O` [PACLITAXEL], the IC50 (in [1]; in the assay on MCF7) was over 10 µM each time.
In the case of `CC(=O)OC[C@@]1(C)[C@@H]2CC[C@]3(C)[C@H](CC=C4[C@@H]5CC(C)(C)CC[C@]5(C(=O)O)CC[C@]43C)[C@@]2(C)CC[C@@H]1OC(C)=O`, the values for the IC50 (in the assay with MDA-MB-231; in assay [1]; with MCF7) were over 10 µM, 8.5 µM and over 10 µM, respectively.
In the case of `CC(=O)O[C@H]1CC[C@]2(C)[C@H]3CC=C4[C@@H]5CC(C)(C)CC[C@]5(C(=O)O)CC[C@@]4(C)[C@]3(C)CC[C@H]2C1(C)C` [ACETYL OLEANOLIC ACID], the IC50 with A549 is 5.8 µM; in the assay on MDA-MB-231, over 10 µM; in assay [1], 7.6 µM; in the assay on MCF7, over 10 µM; in the assay with KB, 7.6 µM.
For `CC1(C)CC[C@]2(C(=O)O)CC[C@]3(C)C(=CC[C@@H]4[C@@]5(C)CC[C@H](O)C(C)(C)[C@@H]5CC[C@]43C)[C@@H]2C1` [OLEANOLIC_ACID], the IC50 in assay [2] is over 20 µM; in the assay with A549 it was 6.4 µM; in assay [3], over 20 µM; in the assay on MDA-MB-231, over 10 µM; in [4], over 20 µM; in assay [1], over 10 µM. Also, the IC50 in the assay on MCF7, with NCI-H1975 [5], in the assay with KB and with NCI-H1975 [6] was over 10 µM in each case.

The record behind these values is ChEMBL document CHEMBL4414650, “Discovery of an Oleanolic Acid/Hederagenin-Nitric Oxide Donor Hybrid as an EGFR Tyrosine Kinase Inhibitor for Non-Small-Cell Lung Cancer” (J Nat Prod, 2019).
